The values below come from ChEMBL document CHEMBL5154741, “Antibacterial alkylguanidino ureas: Molecular simplification approach, searching for membrane-based MoA” (Eur J Med Chem, 2022).

Each structure is given as a SMILES string.

The nature of data set [1]: Apparent permeability of the compound across bacterial inner membrane mimic PC-phospholipids in PBS buffer at pH 7.4 incubated for 5 hrs by PAMPA based UV-Vis spectrophotometric analysis. The class given is ADME. A general note: PAMPA measures passive passage across an artificial lipid membrane.
Data set [2] is described as follows: Apparent permeability of the compound across bacterial inner membrane mimic PC-phospholipids in PBS buffer at pH 7.4 incubated for 5 hrs in presence of 1,3,3-tris(8-carbamimidamidooctyl)-1-{8-[N'-(cyclopropylmethyl)carbamimidamido]octyl}urea trifluoroacetate salt by PAMPA based UV-Vis spectrophotometric analysis.
Data set [3] can be described thus: Apparent permeability of the compound across bacterial inner membrane mimic pure POPG in PBS buffer at pH 7.4 incubated for 5 hrs by PAMPA based UV-Vis spectrophotometric analysis. The class given is ADME.
Data set [4] in a line: Apparent permeability of the compound across bacterial inner membrane mimic PC-phospholipids in PBS buffer at pH 7.4 incubated for 5 hrs in presence of 1,3-bis(8-aminooctyl)-1,3-bis(8- carbamimidamidooctyl)urea trifluoroacetate salt by PAMPA based UV-Vis spectrophotometric analysis.
The nature of data set [5]: Apparent permeability of the compound across bacterial inner membrane mimic PC-phospholipids in PBS buffer at pH 7.4 incubated for 5 hrs in presence of 1,1-bis({6-[N'-(cyclopropylmethyl)carbamimidamido]hexyl})-3-{8-[N'-(cyclopropylmethyl)carbamimidamido]octyl}-3-octylurea by PAMPA based UV-Vis spectrophotometric analysis.
Data set [6] can be described thus: Apparent permeability of the compound across bacterial inner membrane mimic POPE/POPG (6:4) in PBS buffer at pH 7.4 incubated for 5 hrs by PAMPA based UV-Vis spectrophotometric analysis. The class given is ADME.
The nature of data set [7]: Apparent permeability of the compound across bacterial inner membrane mimic PC-phospholipids in PBS buffer at pH 7.4 incubated for 5 hrs in presence of {8-[N'(cyclopropylmethyl)carbamimidamido]octyl}urea trifluoroacetate salt by PAMPA based UV-Vis spectrophotometric analysis.
Data set [8] is described as follows: Apparent permeability of the compound across bacterial inner membrane mimic PC-phospholipids in PBS buffer at pH 7.4 incubated for 5 hrs in presence of 1,3-bis(8-carbamimidamidooctyl)-1,3-bis({8-[N'-(cyclopropylmethyl)carbamimidamido]octyl})urea by PAMPA based UV-Vis spectrophotometric analysis.
A short description of data set [9]: Apparent permeability of the compound across bacterial inner membrane mimic pure POPG in PBS buffer at pH 7.4 incubated for 5 hrs in presence of 1,3-bis(8-carbamimidamidooctyl)-1,3-bis({8-[N'-(cyclopropylmethyl)carbamimidamido]octyl})urea by PAMPA based UV-Vis spectrophotometric analysis.
The nature of data set [10]: Apparent permeability of the compound across bacterial inner membrane mimic pure POPG in PBS buffer at pH 7.4 incubated for 5 hrs in presence of {8-[N'(cyclopropylmethyl)carbamimidamido]octyl}urea trifluoroacetate salt by PAMPA based UV-Vis spectrophotometric analysis.
A short description of data set [11]: Apparent permeability of the compound across bacterial inner membrane mimic pure POPG in PBS buffer at pH 7.4 incubated for 5 hrs in presence of 1,1-bis({6-[N'-(cyclopropylmethyl)carbamimidamido]hexyl})-3-{8-[N'-(cyclopropylmethyl)carbamimidamido]octyl}-3-octylurea by PAMPA based UV-Vis spectrophotometric analysis.
A short description of data set [12]: Apparent permeability of the compound across bacterial inner membrane mimic pure POPG in PBS buffer at pH 7.4 incubated for 5 hrs in presence of 1,3-bis(8-aminooctyl)-1,3-bis(8- carbamimidamidooctyl)urea trifluoroacetate salt by PAMPA based UV-Vis spectrophotometric analysis.
Data set [13] is described as follows: Apparent permeability of the compound across bacterial inner membrane mimic pure POPG in PBS buffer at pH 7.4 incubated for 5 hrs in presence of 1,3,3-tris(8-carbamimidamidooctyl)-1-{8-[N'-(cyclopropylmethyl)carbamimidamido]octyl}urea trifluoroacetate salt by PAMPA based UV-Vis spectrophotometric analysis.
A short description of data set [14]: Apparent permeability of the compound across bacterial inner membrane mimic POPE/POPG (6:4) in PBS buffer at pH 7.4 incubated for 5 hrs in presence of 1,3-bis(8-carbamimidamidooctyl)-1,3-bis({8-[N'-(cyclopropylmethyl)carbamimidamido]octyl})urea by PAMPA based UV-Vis spectrophotometric analysis.
A short description of data set [15]: Apparent permeability of the compound across bacterial inner membrane mimic POPE/POPG (6:4) in PBS buffer at pH 7.4 incubated for 5 hrs in presence of {8-[N'(cyclopropylmethyl)carbamimidamido]octyl}urea trifluoroacetate salt by PAMPA based UV-Vis spectrophotometric analysis.
Data set [16] can be described thus: Apparent permeability of the compound across bacterial inner membrane mimic POPE/POPG (6:4) in PBS buffer at pH 7.4 incubated for 5 hrs in presence of 1,1-bis({6-[N'-(cyclopropylmethyl)carbamimidamido]hexyl})-3-{8-[N'-(cyclopropylmethyl)carbamimidamido]octyl}-3-octylurea by PAMPA based UV-Vis spectrophotometric analysis.
Data set [17] in a line: Apparent permeability of the compound across bacterial inner membrane mimic POPE/POPG (6:4) in PBS buffer at pH 7.4 incubated for 5 hrs in presence of 1,3-bis(8-aminooctyl)-1,3-bis(8- carbamimidamidooctyl)urea trifluoroacetate salt by PAMPA based UV-Vis spectrophotometric analysis.
Data set [18] is described as follows: Apparent permeability of the compound across bacterial inner membrane mimic POPE/POPG (6:4) in PBS buffer at pH 7.4 incubated for 5 hrs in presence of 1,3,3-tris(8-carbamimidamidooctyl)-1-{8-[N'-(cyclopropylmethyl)carbamimidamido]octyl}urea trifluoroacetate salt by PAMPA based UV-Vis spectrophotometric analysis.
Data set [19] in a line: Apparent permeability of the compound across bacterial inner membrane mimic PC-phospholipids in PBS buffer assessed as membrane retention at pH 7.4 incubated for 5 hrs in presence of 1,3-bis(8-carbamimidamidooctyl)-1,3-bis({8-[N'-(cyclopropylmethyl)carbamimidamido]octyl})urea by PAMPA based UV-Vis spectrophotometric analysis. Conditions: pH 7.4, 5 h. The data set is classed as ADME, cell membranes.

Data set [20] in a line: Apparent permeability of the compound across bacterial inner membrane mimic PC-phospholipids in PBS buffer assessed as membrane retention at pH 7.4 incubated for 5 hrs by PAMPA based UV-Vis spectrophotometric analysis. The data set is classed as ADME, cell membranes. The conditions noted are these: pH 7.4, 5 h.
The nature of data set [21]: Apparent permeability of the compound across bacterial inner membrane mimic pure POPG in PBS buffer assessed as membrane retention at pH 7.4 incubated for 5 hrs by PAMPA based UV-Vis spectrophotometric analysis. The data set is classed as ADME, cell membranes. The conditions noted are these: pH 7.4, 5 h.
Data set [22] is described as follows: Apparent permeability of the compound across bacterial inner membrane mimic POPE/POPG (6:4) in PBS buffer assessed as membrane retention at pH 7.4 incubated for 5 hrs by PAMPA based UV-Vis spectrophotometric analysis. The data set is classed as ADME, cell membranes. The conditions noted are these: pH 7.4, 5 h.
Data set [23] is described as follows: Apparent permeability of the compound across bacterial inner membrane mimic PC-phospholipids in PBS buffer assessed as membrane retention at pH 7.4 incubated for 5 hrs in presence of {8-[N'(cyclopropylmethyl)carbamimidamido]octyl}urea trifluoroacetate salt by PAMPA based UV-Vis spectrophotometric analysis. The data set is classed as ADME, cell membranes. The conditions noted are these: pH 7.4, 5 h.

A short description of data set [24]: Apparent permeability of the compound across bacterial inner membrane mimic PC-phospholipids in PBS buffer assessed as membrane retention at pH 7.4 incubated for 5 hrs in presence of 1,1-bis({6-[N'-(cyclopropylmethyl)carbamimidamido]hexyl})-3-{8-[N'-(cyclopropylmethyl)carbamimidamido]octyl}-3-octylurea by PAMPA based UV-Vis spectrophotometric analysis. The class given is ADME, cell membranes. Conditions: pH 7.4, 5 h.

The nature of data set [25]: Apparent permeability of the compound across bacterial inner membrane mimic PC-phospholipids in PBS buffer assessed as membrane retention at pH 7.4 incubated for 5 hrs in presence of 1,3-bis(8-aminooctyl)-1,3-bis(8- carbamimidamidooctyl)urea trifluoroacetate salt by PAMPA based UV-Vis spectrophotometric analysis. The class given is ADME, cell membranes. The conditions noted are these: pH 7.4, 5 h.

Data set [26] is described as follows: Apparent permeability of the compound across bacterial inner membrane mimic PC-phospholipids in PBS buffer assessed as membrane retention at pH 7.4 incubated for 5 hrs in presence of 1,3,3-tris(8-carbamimidamidooctyl)-1-{8-[N'-(cyclopropylmethyl)carbamimidamido]octyl}urea trifluoroacetate salt by PAMPA based UV-Vis spectrophotometric analysis. The conditions noted are these: pH 7.4, 5 h. The class given is ADME, cell membranes.

Data set [27] in a line: Apparent permeability of the compound across bacterial inner membrane mimic pure POPG in PBS buffer assessed as membrane retention at pH 7.4 incubated for 5 hrs in presence of 1,3-bis(8-carbamimidamidooctyl)-1,3-bis({8-[N'-(cyclopropylmethyl)carbamimidamido]octyl})urea by PAMPA based UV-Vis spectrophotometric analysis. The class given is ADME, cell membranes. The conditions noted are these: pH 7.4, 5 h.

A short description of data set [28]: Apparent permeability of the compound across bacterial inner membrane mimic pure POPG in PBS buffer assessed as membrane retention at pH 7.4 incubated for 5 hrs in presence of {8-[N'(cyclopropylmethyl)carbamimidamido]octyl}urea trifluoroacetate salt by PAMPA based UV-Vis spectrophotometric analysis. The data set is classed as ADME, cell membranes. Conditions: pH 7.4, 5 h.

Data set [29] is described as follows: Apparent permeability of the compound across bacterial inner membrane mimic pure POPG in PBS buffer assessed as membrane retention at pH 7.4 incubated for 5 hrs in presence of 1,1-bis({6-[N'-(cyclopropylmethyl)carbamimidamido]hexyl})-3-{8-[N'-(cyclopropylmethyl)carbamimidamido]octyl}-3-octylurea by PAMPA based UV-Vis spectrophotometric analysis. The data set is classed as ADME, cell membranes. Conditions: pH 7.4, 5 h.

A short description of data set [30]: Apparent permeability of the compound across bacterial inner membrane mimic pure POPG in PBS buffer assessed as membrane retention at pH 7.4 incubated for 5 hrs in presence of 1,3-bis(8-aminooctyl)-1,3-bis(8- carbamimidamidooctyl)urea trifluoroacetate salt by PAMPA based UV-Vis spectrophotometric analysis. The class given is ADME, cell membranes. Conditions: pH 7.4, 5 h.

Data set [31] is described as follows: Apparent permeability of the compound across bacterial inner membrane mimic pure POPG in PBS buffer assessed as membrane retention at pH 7.4 incubated for 5 hrs in presence of 1,3,3-tris(8-carbamimidamidooctyl)-1-{8-[N'-(cyclopropylmethyl)carbamimidamido]octyl}urea trifluoroacetate salt by PAMPA based UV-Vis spectrophotometric analysis. The class given is ADME, cell membranes. The conditions noted are these: pH 7.4, 5 h.

Data set [32] is described as follows: Apparent permeability of the compound across bacterial inner membrane mimic POPE/POPG (6:4) in PBS buffer assessed as membrane retention at pH 7.4 incubated for 5 hrs in presence of 1,3-bis(8-carbamimidamidooctyl)-1,3-bis({8-[N'-(cyclopropylmethyl)carbamimidamido]octyl})urea by PAMPA based UV-Vis spectrophotometric analysis. The data set is classed as ADME, cell membranes. The conditions noted are these: pH 7.4, 5 h.

A short description of data set [33]: Apparent permeability of the compound across bacterial inner membrane mimic POPE/POPG (6:4) in PBS buffer assessed as membrane retention at pH 7.4 incubated for 5 hrs in presence of {8-[N'(cyclopropylmethyl)carbamimidamido]octyl}urea trifluoroacetate salt by PAMPA based UV-Vis spectrophotometric analysis. The class given is ADME, cell membranes. Conditions: pH 7.4, 5 h.

A short description of data set [34]: Apparent permeability of the compound across bacterial inner membrane mimic POPE/POPG (6:4) in PBS buffer assessed as membrane retention at pH 7.4 incubated for 5 hrs in presence of 1,1-bis({6-[N'-(cyclopropylmethyl)carbamimidamido]hexyl})-3-{8-[N'-(cyclopropylmethyl)carbamimidamido]octyl}-3-octylurea by PAMPA based UV-Vis spectrophotometric analysis. The data set is classed as ADME, cell membranes. The conditions noted are these: pH 7.4, 5 h.

Data set [35] can be described thus: Apparent permeability of the compound across bacterial inner membrane mimic POPE/POPG (6:4) in PBS buffer assessed as membrane retention at pH 7.4 incubated for 5 hrs in presence of 1,3-bis(8-aminooctyl)-1,3-bis(8- carbamimidamidooctyl)urea trifluoroacetate salt by PAMPA based UV-Vis spectrophotometric analysis. The data set is classed as ADME, cell membranes. Conditions: pH 7.4, 5 h.

A short description of data set [36]: Apparent permeability of the compound across bacterial inner membrane mimic POPE/POPG (6:4) in PBS buffer assessed as membrane retention at pH 7.4 incubated for 5 hrs in presence of 1,3,3-tris(8-carbamimidamidooctyl)-1-{8-[N'-(cyclopropylmethyl)carbamimidamido]octyl}urea trifluoroacetate salt by PAMPA based UV-Vis spectrophotometric analysis. The conditions noted are these: pH 7.4, 5 h. The class given is ADME, cell membranes.

On to `O=C(N[C@H](CO)[C@H](O)c1ccc([N+](=O)[O-])cc1)C(Cl)Cl` [CHLORAMPHENICOL], for which the Papp at 5 h in data set [1] stood at 0.54 ×10⁻⁶ cm/s; in data set [2], 4.67 ×10⁻⁶ cm/s; in [3] it was 0.06 ×10⁻⁶ cm/s; in [4], 3.24 ×10⁻⁶ cm/s; in data set [5] it was 8.73 ×10⁻⁶ cm/s; in [6], 1.12 ×10⁻⁶ cm/s. Moreover, the Papp at 5 h was 0.04 ×10⁻⁶ cm/s in [7]; 6.12 ×10⁻⁶ cm/s in [8]; 2.18 ×10⁻⁶ cm/s in [9]; 0.08 ×10⁻⁶ cm/s in data set [10]; 3.39 ×10⁻⁶ cm/s in data set [11]; 3.14 ×10⁻⁶ cm/s in data set [12]. For the same compound, the Papp at 5 h is 3.78 ×10⁻⁶ cm/s in [13]; 1.39 ×10⁻⁶ cm/s in data set [14]; 1.67 ×10⁻⁶ cm/s in data set [15]; 6.64 ×10⁻⁶ cm/s in data set [16]; 6.11 ×10⁻⁶ cm/s in data set [17]; 6.98 ×10⁻⁶ cm/s in [18].

Regarding `Cn1c(=O)c2c(ncn2C)n(C)c1=O` [CAFFEINE], the R% in data set [19] amounted to 12.6%; in data set [20], 3.2%; in [21] it was 4.5%; in [22], 3.3%; in [23], 12.8%; in data set [24], 0%. Also, the R% in [25] is listed as 15.8%; in [26], 8.1%; in data set [27] it was 13.5%; in data set [28], 13.4%; in [29] it was 14.7%; in data set [30], 17.1%. In addition, the R% in [31] was determined as 14.6%; in [32], 12.6%; in data set [33], 17.5%; in data set [34], 16.7%; in data set [35], 16.5%; in [36], 19%.

Broadly, the Papp is the rate of passage across a membrane or cell layer, normalised by area and donor concentration.
